ChEMBL document CHEMBL4765464, “Discovery of BMS-986144, a Third-Generation, Pan-Genotype NS3/4A Protease Inhibitor for the Treatment of Hepatitis C Virus Infection” (J Med Chem, 2020)
pEC50, pIC50: −log10 of the molar value.

What was measured:
[1] = Inhibition of recombinant full length NS3/4A protease in Hepatitis C virus subtype 3a infected in human HuH7 cells using Ac-Asp-Glu-Asp (EDANS)-Glu-Glu-Abu-(COO) Ala-Ser-Lys (DABCYL)-NH2 as substrate by FRET assay; settings: Huh-7
[2] = Inhibition of recombinant full length NS3/4A protease in Hepatitis C virus subtype 1a replicon infected in human HuH7 cells preincubated for 3 days followed by substrate addition and measured after 2 hrs by renilla luciferase reporter gene assay; format: cell-based; settings: Huh-7
[3] = Inhibition of recombinant full length NS3/4A protease in Hepatitis C virus subtype 1b replicon infected in human HuH7 cells preincubated for 3 days followed by substrate addition and measured after 2 hrs by renilla luciferase reporter gene assay; format: cell-based; settings: Huh-7
[4] = Inhibition of recombinant full length NS3/4A protease in Hepatitis C virus subtype 2a replicon infected in human HuH7 cells preincubated for 3 days followed by substrate addition and measured after 2 hrs by renilla luciferase reporter gene assay; format: cell-based; settings: Huh-7
[5] = Inhibition of recombinant full length NS3/4A protease in Hepatitis C virus subtype 3a replicon infected in human HuH7 cells preincubated for 3 days followed by substrate addition and measured after 2 hrs by renilla luciferase reporter gene assay; format: cell-based; settings: Huh-7
[6] = Inhibition of recombinant full length NS3/4A R155K mutant protease in Hepatitis C virus subtype 1a replicon infected in human HuH7 cells preincubated for 3 days followed by substrate addition and measured after 2 hrs by renilla luciferase reporter gene assay; format: cell-based; settings: Huh-7
[7] = Inhibition of recombinant full length NS3/4A D168V mutant protease in Hepatitis C virus subtype 1b replicon infected in human HuH7 cells preincubated for 3 days followed by substrate addition and measured after 2 hrs by renilla luciferase reporter gene assay; format: cell-based; settings: Huh-7
[8] = Metabolic stability in human liver microsomes assessed as half-life incubated for 5 to 45 mins in presence of NADPH by LC-MS analysis; format: ADME, Microsome; settings: time 5-45 min
[9] = Clearance in rat at 1 mg/kg, iv; format: ADME, organism-based; settings: in vivo
[10] = Half life in rat at 1 mg/kg, iv; format: ADME, organism-based; settings: in vivo
[11] = AUC (0 to 24 hrs) in rat at 5 mg/kg, po; format: ADME, organism-based; design: time < 24 hr, route oral, dose 5 mg/kg; settings: in vivo
[12] = Cmax in rat at 5 mg/kg, po; format: ADME, organism-based; design: route oral, dose 5 mg/kg; settings: in vivo
[13] = Drug concentration in rat plasma at 5 mg/kg, po measured upto 24 hrs; format: ADME, organism-based; settings: read-out: Ct
[14] = Drug concentration in rat liver at 5 mg/kg, po measured upto 24 hrs; format: ADME, organism-based; settings: read-out: Ct
[15] = Ratio of drug concentration in liver to plasma in rat at 5 mg/kg, po measured upto 24 hrs; format: ADME, organism-based; settings: liver and plasma
[16] = Oral bioavailability in rat at 5 mg/kg; format: ADME, organism-based; settings: in vivo
[17] = Half-life in dog at 3 mg/kg, po or 1 mg/kg, iv; format: ADME, organism-based, Canis lupus familiaris; settings: in vivo
[18] = Half-life in rat at 5 mg/kg, po or 1 mg/kg, iv; format: ADME, organism-based; settings: in vivo
[19] = Clearance in rat at 5 mg/kg, po or 1 mg/kg, iv; format: ADME, organism-based; settings: in vivo
[20] = AUC in rat at 5 mg/kg, po or 1 mg/kg, iv; format: ADME, organism-based; design: dose 5 mg/kg; settings: in vivo
[21] = Clearance in dog at 3 mg/kg, po or 1 mg/kg, iv; format: ADME, organism-based, Canis lupus familiaris; settings: in vivo
[22] = Oral bioavailability in dog at 3 mg/kg; format: ADME, organism-based, Canis lupus familiaris; settings: in vivo
[23] = AUC in dog at 3 mg/kg, po or 1 mg/kg, iv; format: ADME, organism-based, Canis lupus familiaris; design: dose 3 mg/kg; settings: in vivo
[24] = Drug concentration in dog plasma at 3 mg/kg, po measured upto 24 hrs; format: ADME, organism-based, Canis lupus familiaris; settings: read-out: Ct
[25] = Half-life in cynomolgus monkey at 3 mg/kg, po or 1 mg/kg, iv; format: ADME, organism-based, Macaca fascicularis; settings: in vivo
[26] = Clearance in cynomolgus monkey at 3 mg/kg, po or 1 mg/kg, iv; format: ADME, organism-based, Macaca fascicularis; settings: in vivo
[27] = Oral bioavailability in cynomolgus monkey at 3 mg/kg; format: ADME, organism-based, Macaca fascicularis; settings: in vivo
[28] = AUC in cynomolgus monkey at 3 mg/kg, po or 1 mg/kg, iv; format: ADME, organism-based, Macaca fascicularis; design: dose 3 mg/kg; settings: in vivo
[29] = Drug concentration in cynomolgus monkey plasma at 3 mg/kg, po measured upto 24 hrs; format: ADME, organism-based, Macaca fascicularis; settings: read-out: Ct
[30] = Toxicity in rat assessed as histopathological changes in liver at 100 mg/kg; format: organism-based; settings: in vivo
[31] = Toxicity in rat assessed as increase in heart rate at 30 to 100 mg/kg; format: organism-based; settings: in vivo, dose 30-100 mg/kg
[32] = Toxicity in rat assessed as reduction in blood pressure at 30 to 100 mg/kg; format: organism-based; settings: in vivo, dose 30-100 mg/kg
[33] = Clearance in rat at 5 mg/kg, iv; format: ADME, organism-based; settings: in vivo
[34] = AUC (0 to 24 hrs) in rat at 15 mg/kg, po; format: ADME, organism-based; design: time < 24 hr, route oral, dose 15 mg/kg; settings: in vivo
[35] = Ratio of drug concentration in liver to plasma in rat at 15 mg/kg, po measured upto 24 hrs; format: ADME, organism-based; settings: liver and plasma
[36] = Half life in rat at 5 mg/kg, iv; format: ADME, organism-based; settings: in vivo
[37] = Cmax in rat at 15 mg/kg, po; format: ADME, organism-based; design: route oral, dose 15 mg/kg; settings: in vivo
[38] = Drug concentration in rat plasma at 15 mg/kg, po measured upto 24 hrs; format: ADME, organism-based; settings: read-out: Ct
[39] = Drug concentration in rat liver at 15 mg/kg, po measured upto 24 hrs; format: ADME, organism-based; settings: read-out: Ct
[40] = Oral bioavailability in rat at 15 mg/kg; format: ADME, organism-based; settings: in vivo
[41] = Metabolic stability in rat liver microsomes assessed as parent compound remaining after 10 mins in presence of NADPH by LC-MS analysis; format: ADME, Microsome; settings: read-out: Stabilty
[42] = Volume of distribution in rat at 15 mg/kg, po or 5 mg/kg, iv; format: ADME, organism-based; settings: in vivo

Question: With CC[C@@H]1C[C@H](C)CC/C=C\[C@@H]2C[C@@]2(C(=O)NS(=O)(=O)C2(C)CC2)NC(=O)[C@@H]2C[C@@H](Oc3ncc(OC)c4ccc(F)cc34)CN2C(=O)[C@H]1NC(=O)OC(C)(C)C(F)(F)F as the compound, how does the pIC50 [1] read?
Answer: The pIC50 was 8.08.

Question: And the pEC50 [2]?
Answer: Its pEC50 is 8.64.

Question: What about the pEC50 [3] of the same compound?
Answer: Its pEC50 is 9.22.

Question: What about the pEC50 [4] of the same compound?
Answer: The pEC50 was 8.70.

Question: And the pEC50 [5]?
Answer: Its pEC50 is 7.82.

Question: And the pEC50 [6]?
Answer: Its pEC50 is 8.12.

Question: And the pEC50 [7]?
Answer: The pEC50 was 8.05.

Question: What about the half-life [8] of the same compound?
Answer: The half-life was 0.717 h.

Question: What about the clearance [9] of the same compound?
Answer: The clearance was 1.2 mL/min/kg.

Question: What about the half-life [10] of the same compound?
Answer: The half-life was 7.9 h.

Question: And the AUC(0-t) at 24 h [11]?
Answer: The AUC(0-t) at 24 h was 32.5 µM·h.

Question: What about the Cmax [12] of the same compound?
Answer: The Cmax was 3610 nM.

Question: And the concentration at 24 h [13]?
Answer: The concentration at 24 h was 422 nM.

Question: What about the concentration at 24 h [14] of the same compound?
Answer: The concentration at 24 h was 2070 nM.

Question: And the Kp at 24 h [15]?
Answer: Its Kp at 24 h is 5.

Question: And the bioavailability [16]?
Answer: The bioavailability was 47%.

Question: What about the half-life [17] of the same compound?
Answer: The half-life was 11.3 h.

Question: And the half-life [18]?
Answer: Its half-life is 7.9 h.

Question: What about the clearance [19] of the same compound?
Answer: The clearance was 1.2 mL/min/kg.

Question: What about the AUC [20] of the same compound?
Answer: Its AUC is 37 µM·h.

Question: And the clearance [21]?
Answer: The clearance was 0.6 mL/min/kg.

Question: What about the bioavailability [22] of the same compound?
Answer: The bioavailability was 67%.

Question: What about the AUC [23] of the same compound?
Answer: Its AUC is 71 µM·h.

Question: What about the concentration at 24 h [24] of the same compound?
Answer: The concentration at 24 h was 709 nM.

Question: What about the half-life [25] of the same compound?
Answer: Its half-life is 2.8 h.

Question: What about the clearance [26] of the same compound?
Answer: The clearance was 5.5 mL/min/kg.

Question: What about the bioavailability [27] of the same compound?
Answer: Its bioavailability is 28%.

Question: What about the AUC [28] of the same compound?
Answer: Its AUC is 2.9 µM·h.

Question: And the concentration at 24 h [29]?
Answer: The concentration at 24 h was 13 nM.

Question: What about the Activity [30] of the same compound?
Answer: The Activity was “Non-Toxic”.

Question: And the Activity [31]?
Answer: Its Activity is “Toxic”.

Question: What about the Activity [32] of the same compound?
Answer: Its Activity is “Toxic”.

Question: Which results are given for COc1cnc(O[C@@H]2C[C@H]3C(=O)N[C@]4(C(=O)NS(=O)(=O)C5CC5)C[C@H]4/C=C\CC[C@@H](C)C[C@@H](C)[C@H](NC(=O)OC(C)(C)C(F)(F)F)C(=O)N3C2)c2ccccc12?
Answer: pIC50 [1]: 9.05; pEC50 [2]: 9.30; pEC50 [3]: 9.30; pEC50 [4]: 9.10; pEC50 [5]: 8.70; pEC50 [6]: 8.66; pEC50 [7]: 8.26; half-life [8]: 0.198 h; clearance [33]: 4.2 mL/min/kg; AUC(0-t) at 24 h [34]: 11.7 µM·h; Kp at 24 h [35]: 34; half-life [36]: 2.7 h; Cmax [37]: 1780 nM; concentration at 24 h [38]: 14 nM; concentration at 24 h [39]: 480 nM; bioavailability [40]: 15%; remaining at 10 min [41]: 95%; Vd [42]: 0.58 L/kg
